Consider six molecules from ChEMBL document CHEMBL1145141, “New 2-bromomethyl-8-substituted-benzo[c]chromen-6-ones. Synthesis and biological properties” (Bioorg Med Chem Lett, 2005).

For assay [1], the target named is Human immunodeficiency virus type 1 protease (Human immunodeficiency virus 1) (UniProt Q72874). In words: Effective dose against protease of human immunodeficiency virus type 1.
Assay [2] shares this target. In words: Initial effective dose against protease of human immunodeficiency virus type 1.
In assay [3] the target is Nitric oxide synthase, inducible (Homo sapiens) (UniProt P35228). Put plainly: Inhibitory activity against Inducible nitric oxide synthase.
Assay [4] deals with Nitric oxide synthase 1 (Homo sapiens) (UniProt P29475). Put plainly: Inhibitory activity against Neuronal nitric oxide synthase.
The target of assay [5] is T1, Nitric oxide synthase 3 (Homo sapiens) (UniProt P29474).
T1 sequence (whole entry): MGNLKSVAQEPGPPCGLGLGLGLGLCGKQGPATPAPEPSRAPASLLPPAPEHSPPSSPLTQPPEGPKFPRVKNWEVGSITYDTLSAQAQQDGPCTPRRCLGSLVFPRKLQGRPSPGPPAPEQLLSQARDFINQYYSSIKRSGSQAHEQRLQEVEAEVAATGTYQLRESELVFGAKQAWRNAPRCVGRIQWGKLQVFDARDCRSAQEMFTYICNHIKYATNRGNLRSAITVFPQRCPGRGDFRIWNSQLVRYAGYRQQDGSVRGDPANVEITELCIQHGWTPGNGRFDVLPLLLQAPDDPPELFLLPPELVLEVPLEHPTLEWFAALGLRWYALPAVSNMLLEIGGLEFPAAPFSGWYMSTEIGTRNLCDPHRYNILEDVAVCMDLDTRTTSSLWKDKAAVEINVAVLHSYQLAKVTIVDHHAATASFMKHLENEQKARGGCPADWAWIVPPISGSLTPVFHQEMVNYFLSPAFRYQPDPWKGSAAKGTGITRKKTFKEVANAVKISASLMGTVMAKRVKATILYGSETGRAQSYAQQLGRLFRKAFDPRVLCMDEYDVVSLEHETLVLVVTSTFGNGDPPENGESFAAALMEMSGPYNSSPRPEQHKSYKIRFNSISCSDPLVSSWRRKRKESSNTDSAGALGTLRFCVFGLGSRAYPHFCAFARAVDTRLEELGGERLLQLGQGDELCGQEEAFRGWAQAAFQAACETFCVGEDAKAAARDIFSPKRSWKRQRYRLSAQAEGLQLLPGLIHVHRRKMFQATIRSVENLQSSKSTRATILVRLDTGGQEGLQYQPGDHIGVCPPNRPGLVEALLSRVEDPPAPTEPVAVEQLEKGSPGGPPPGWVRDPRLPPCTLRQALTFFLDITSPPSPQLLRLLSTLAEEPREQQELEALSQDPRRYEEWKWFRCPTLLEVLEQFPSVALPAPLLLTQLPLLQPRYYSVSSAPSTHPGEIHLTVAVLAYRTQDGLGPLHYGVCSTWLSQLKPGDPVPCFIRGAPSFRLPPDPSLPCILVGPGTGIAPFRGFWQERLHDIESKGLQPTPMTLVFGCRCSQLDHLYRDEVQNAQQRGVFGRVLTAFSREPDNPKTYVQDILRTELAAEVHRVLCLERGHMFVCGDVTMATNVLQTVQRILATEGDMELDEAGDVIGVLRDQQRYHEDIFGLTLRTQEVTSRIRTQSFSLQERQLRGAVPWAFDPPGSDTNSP
In words: Inhibitory activity against Endothelial nitric oxide synthase.

The target of assay [6] is Human immunodeficiency virus type 1 protease (Human immunodeficiency virus 1, UniProt Q72874). Put plainly: Inhibitory concentration against HIV aspartyl protease.
Assay [7] in a line: Inhibitory concentration against Alpha-chymotrypsin.
A further assay concerns the target T2, Chymotrypsin-C (Homo sapiens, UniProt Q99895).
T2 sequence (Q99895 whole entry): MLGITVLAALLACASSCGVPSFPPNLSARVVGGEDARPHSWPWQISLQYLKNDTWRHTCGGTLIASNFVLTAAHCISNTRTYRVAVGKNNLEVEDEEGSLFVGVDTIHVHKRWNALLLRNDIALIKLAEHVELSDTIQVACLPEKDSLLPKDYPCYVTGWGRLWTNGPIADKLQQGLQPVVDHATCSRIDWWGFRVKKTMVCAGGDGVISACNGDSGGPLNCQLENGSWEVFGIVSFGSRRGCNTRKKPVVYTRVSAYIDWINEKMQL
In words: Inhibitory concentration against Alpha-chymotrypsin; In active at 100 uM.

Where “and” joins values, the source holds several entries; their conditions need not be identical. Equal entries are not always repeated.

Chain of Nitric oxide synthase, inducible (Homo sapiens) (P35228 whole entry): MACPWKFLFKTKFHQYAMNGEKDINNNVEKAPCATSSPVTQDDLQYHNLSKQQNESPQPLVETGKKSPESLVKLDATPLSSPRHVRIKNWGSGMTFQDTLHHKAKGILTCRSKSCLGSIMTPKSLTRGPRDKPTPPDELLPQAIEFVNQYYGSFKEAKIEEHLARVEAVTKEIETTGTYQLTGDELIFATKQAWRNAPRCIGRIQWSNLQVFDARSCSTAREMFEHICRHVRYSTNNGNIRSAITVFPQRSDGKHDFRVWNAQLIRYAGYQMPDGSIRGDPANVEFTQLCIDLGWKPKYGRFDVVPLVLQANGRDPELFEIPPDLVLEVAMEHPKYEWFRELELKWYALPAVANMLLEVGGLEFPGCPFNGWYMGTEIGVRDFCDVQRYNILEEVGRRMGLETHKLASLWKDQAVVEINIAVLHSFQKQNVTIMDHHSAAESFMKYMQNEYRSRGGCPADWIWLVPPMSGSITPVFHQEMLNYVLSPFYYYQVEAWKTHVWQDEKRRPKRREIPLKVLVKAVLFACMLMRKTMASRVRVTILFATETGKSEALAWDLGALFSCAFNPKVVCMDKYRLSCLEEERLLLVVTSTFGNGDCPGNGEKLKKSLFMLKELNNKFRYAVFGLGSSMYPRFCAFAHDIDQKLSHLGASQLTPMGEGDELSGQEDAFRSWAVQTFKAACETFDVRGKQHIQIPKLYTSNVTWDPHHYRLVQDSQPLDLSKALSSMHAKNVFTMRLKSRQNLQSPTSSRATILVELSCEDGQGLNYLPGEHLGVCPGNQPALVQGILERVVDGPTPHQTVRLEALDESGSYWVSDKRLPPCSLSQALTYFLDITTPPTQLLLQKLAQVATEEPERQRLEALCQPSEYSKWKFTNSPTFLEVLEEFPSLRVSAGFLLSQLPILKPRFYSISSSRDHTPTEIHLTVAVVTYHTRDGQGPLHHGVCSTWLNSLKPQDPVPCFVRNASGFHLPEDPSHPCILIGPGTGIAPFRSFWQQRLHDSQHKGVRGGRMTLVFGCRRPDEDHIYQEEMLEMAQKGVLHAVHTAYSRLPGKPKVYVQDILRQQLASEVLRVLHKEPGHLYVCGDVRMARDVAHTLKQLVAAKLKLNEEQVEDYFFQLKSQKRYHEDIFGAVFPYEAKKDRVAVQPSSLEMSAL
Chain of Nitric oxide synthase 1 (Homo sapiens) (P29475 whole entry): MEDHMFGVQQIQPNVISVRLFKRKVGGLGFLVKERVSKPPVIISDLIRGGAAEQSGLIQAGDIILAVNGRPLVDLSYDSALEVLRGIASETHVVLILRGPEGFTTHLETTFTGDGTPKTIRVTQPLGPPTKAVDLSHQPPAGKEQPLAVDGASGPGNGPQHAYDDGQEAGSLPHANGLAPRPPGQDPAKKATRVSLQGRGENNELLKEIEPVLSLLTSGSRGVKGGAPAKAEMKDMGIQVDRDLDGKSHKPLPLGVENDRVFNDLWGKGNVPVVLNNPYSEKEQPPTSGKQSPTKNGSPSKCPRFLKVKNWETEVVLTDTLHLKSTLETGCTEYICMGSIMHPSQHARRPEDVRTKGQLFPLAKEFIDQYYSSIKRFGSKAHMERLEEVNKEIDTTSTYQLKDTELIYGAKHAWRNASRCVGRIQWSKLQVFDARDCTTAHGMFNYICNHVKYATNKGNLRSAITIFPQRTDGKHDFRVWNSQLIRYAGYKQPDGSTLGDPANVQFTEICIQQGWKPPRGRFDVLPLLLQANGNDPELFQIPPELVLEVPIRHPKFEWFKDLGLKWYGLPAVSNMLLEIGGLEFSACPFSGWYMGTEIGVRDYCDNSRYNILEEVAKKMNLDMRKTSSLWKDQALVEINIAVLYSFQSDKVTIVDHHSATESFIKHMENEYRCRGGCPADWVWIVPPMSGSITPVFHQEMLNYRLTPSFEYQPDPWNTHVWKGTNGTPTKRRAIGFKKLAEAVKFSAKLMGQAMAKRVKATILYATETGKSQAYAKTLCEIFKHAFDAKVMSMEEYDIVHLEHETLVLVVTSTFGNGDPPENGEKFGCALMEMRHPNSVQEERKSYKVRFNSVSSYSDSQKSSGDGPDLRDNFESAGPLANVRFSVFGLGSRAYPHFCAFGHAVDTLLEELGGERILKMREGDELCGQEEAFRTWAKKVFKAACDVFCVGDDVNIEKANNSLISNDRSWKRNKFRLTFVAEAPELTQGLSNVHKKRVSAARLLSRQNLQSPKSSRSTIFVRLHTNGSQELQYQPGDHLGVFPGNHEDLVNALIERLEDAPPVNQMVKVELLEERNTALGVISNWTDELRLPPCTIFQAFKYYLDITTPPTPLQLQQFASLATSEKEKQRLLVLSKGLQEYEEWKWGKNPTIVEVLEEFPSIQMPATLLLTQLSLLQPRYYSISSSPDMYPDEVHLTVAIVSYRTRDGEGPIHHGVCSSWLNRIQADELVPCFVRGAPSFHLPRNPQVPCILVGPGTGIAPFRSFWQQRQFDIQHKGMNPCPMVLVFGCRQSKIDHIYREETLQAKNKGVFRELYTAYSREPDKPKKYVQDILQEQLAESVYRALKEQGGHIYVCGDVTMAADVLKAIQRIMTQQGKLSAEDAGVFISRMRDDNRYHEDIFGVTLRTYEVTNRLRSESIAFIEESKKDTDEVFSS

For the molecule `CCC[C@@]1(CCc2ccccc2)CC(O)=C([C@H](CC)c2cccc(NS(=O)(=O)c3ccc(C(F)(F)F)cn3)c2)C(=O)O1`, in assay [1], the ED90 was determined as 0.1 µM. Besides, the ED50 in assay [2] came to 300 µM.
As for `O=[N+]([O-])c1cccc2cn[nH]c12`, the Inhibition was 15 µM in assay [3], 15 µM in assay [4] and 8 µM in assay [5].
In the case of `O=c1oc2ccc(CBr)cc2c2ccc([N+](=O)[O-])cc12`, the IC50 – broadly, the point on the concentration scale where inhibition reaches its midpoint – in assay [6] is 10 µM; in assay [7] it was over 100 µM. Besides, the Inhibition came out at 60 µM in assay [3], 250 µM in assay [4] and 120 µM in assay [5].
On to `Cc1ccc2oc(=O)c3cc([N+](=O)[O-])ccc3c2c1`, for which the IC50 is 50 µM in assay [6] and over 100 µM in assay [7].
As for `Cc1ccc2oc(=O)c3cc(N)ccc3c2c1`, the IC50 was about 100 µM in assay [6], “Inactive” on Chymotrypsin-C and over 100 µM in assay [7]. The values for the Inhibition in assay [3], in assay [4] and in assay [5] were 150 µM, 900 µM and 600 µM, respectively.
As for `Nc1ccc2c(c1)c(=O)oc1ccc(CBr)cc12`, the IC50 is 50 µM in assay [6]; > 100 µM and ~100 µM in assay [7]. The Inhibition in assay [3] was found to be 110 µM; in assay [4] it was 200 µM; in assay [5], 120 µM.
